From patent US20220031797A1, “PHARMACEUTICAL COMPOSITIONS CONTAINING HYALURONIC ACID AND CARNOSINE AND RELATIVE USE” (FIDIA FARMACEUTICI S.P.A., priority 2017, published 2022)

Tested on: Monosodium Iodoacetate (MIA) Osteoarthritis in Rats
Assay: MIA-induced osteoarthritis in rats, oral treatment, histological evaluation (modified Mankin score)
Type: in vivo
Conditions: oral every 24 hours day 3-20, conjugate of Example 2 (35% mol/mol) 88.5 mg/kg, mixture 16.2 mg/kg carnosine + 72.3 mg/kg HA, naproxen 10 mg/kg, day 21, versus MIA-control, FIG. 7
Protocol: OA was induced in the posterior knee joints of the rats being tested, by the intra-articular injection of MIA: 25 μl of saline containing 1 mg/kg of MIA were injected into the joint (knee) of the right paw of each animal (under treatment) through the infrapatal ligament, whereas the left joint received an equal volume of saline 0.9% (Sagar D R et al, Ann. Rheum. Dis., 2013, 73: 1558-1565).
Male Sprague-Dawley rats, of about 230 g each, were used, 20 rats per group.
Group 1: MIA-control: the animals were treated by MIA induction and subsequently with distilled water administered orally every 24 hours from the 3rd day after MIA until the 20th day, end of the experimentation.
Group 2: MIA+HA/carnosine conjugate: the animals were treated by MIA induction and subsequently with the above-mentioned conjugate every 24 hours from the 3rd day after MIA until the 20th day. The conjugate used for the experimentation was prepared according to Example 2, it was then derivatized at 35% mol/mol, the dose, administered orally, was equal to 88.5 mg/kg of conjugate (16.2 mg of carnosine and 72.3 mg of HA).
Group 3: MIA+HA/carnosine mixture: the animals were treated by MIA induction and subsequently with HA/carnosine every 24 hours starting from the 3rd day after MIA up to the 20th day. […]

With `COc1ccc2cc([C@H](C)C(=O)O)ccc2c1` [naproxen] the “Histological evaluation (modified Mankin Histological score 0-12; histological damage and cartilage degeneration)” value was “totally comparable to the effect elicited by naproxen”.
